Series [1] is described as follows: Volume of distribution at steady state in rat at 2 mg/kg, iv measured after 24 hrs by LC-MS/MS analysis. As to conditions: in vivo, read-out: Vdss. Type of series: ADME, organism-based.
Series [2] has as its target T1, E3 ubiquitin-protein ligase RNF126/Serine/threonine-protein kinase TBK1 (Homo sapiens, UniProt Q9UHD2+Q9BV68). The experiment in a line: Molecular glue activity at RNF126/TBK1 in HEK293T cells assessed as induction of TBK1 degradation at 1 uM measured after 6 hrs by Western blot analysis. In kind it is cell-based. Background: Immunoblotting shows a protein as a band on a membrane.
Target sequence in this assay (Q9BV68 2-311 partner limits assumed): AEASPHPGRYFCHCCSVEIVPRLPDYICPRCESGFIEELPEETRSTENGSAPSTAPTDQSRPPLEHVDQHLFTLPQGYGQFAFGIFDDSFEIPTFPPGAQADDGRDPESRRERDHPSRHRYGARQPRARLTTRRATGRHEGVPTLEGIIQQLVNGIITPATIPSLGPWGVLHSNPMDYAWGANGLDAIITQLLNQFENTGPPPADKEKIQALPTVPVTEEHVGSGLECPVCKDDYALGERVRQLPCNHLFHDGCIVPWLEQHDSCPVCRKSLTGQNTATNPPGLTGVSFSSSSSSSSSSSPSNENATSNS
Target sequence in this assay (Q9UHD2 whole entry): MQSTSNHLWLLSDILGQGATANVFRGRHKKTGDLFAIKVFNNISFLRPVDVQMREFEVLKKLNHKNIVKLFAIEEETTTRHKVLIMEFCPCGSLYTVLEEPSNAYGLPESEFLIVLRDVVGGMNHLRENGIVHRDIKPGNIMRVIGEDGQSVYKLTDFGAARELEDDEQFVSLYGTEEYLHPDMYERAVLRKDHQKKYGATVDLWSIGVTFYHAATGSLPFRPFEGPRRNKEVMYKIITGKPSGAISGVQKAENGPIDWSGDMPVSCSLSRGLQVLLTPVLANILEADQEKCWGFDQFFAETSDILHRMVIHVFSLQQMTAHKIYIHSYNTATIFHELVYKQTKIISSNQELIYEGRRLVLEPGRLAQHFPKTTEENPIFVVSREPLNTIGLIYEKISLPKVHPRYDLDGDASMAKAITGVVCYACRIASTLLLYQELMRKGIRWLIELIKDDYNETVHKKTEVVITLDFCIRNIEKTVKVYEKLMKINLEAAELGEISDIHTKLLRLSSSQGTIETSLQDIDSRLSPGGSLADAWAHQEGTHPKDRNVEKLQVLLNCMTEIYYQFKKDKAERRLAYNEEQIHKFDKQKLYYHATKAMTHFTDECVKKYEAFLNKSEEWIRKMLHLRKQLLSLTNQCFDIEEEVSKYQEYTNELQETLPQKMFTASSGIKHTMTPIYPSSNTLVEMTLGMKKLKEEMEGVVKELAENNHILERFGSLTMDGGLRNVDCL

Series [3] deals with Mus musculus. The experiment in a line: Anti-inflammatory activity in PKD1 knockout ADPKD (Pkd1 flox/flox; Ksp-Cre) C57BL/6 mouse model assessed as decrease in IL-6 level in kidney at 5 mg/kg, SC administered from postnatal day 6 and measured on postnatal day 12 by RT-qPCR analysis. In kind it is functional, organism-based. As to conditions: time 7.0 day. In general terms: In qPCR the cycle at which signal appears reflects the starting amount.

Series [4] addresses T1, E3 ubiquitin-protein ligase RNF126/Serine/threonine-protein kinase TBK1. The experiment in a line: Molecular glue activity at RNF126/TBK1 in human A549 cells assessed as induction of TBK1 degradation at 1 uM measured after 24 hrs by Western blot analysis. In kind it is cell-based.
Target sequence in this assay (Q9BV68 2-311 partner limits assumed): as the sequence (Q9BV68 2-311 partner limits assumed) above
Target sequence in this assay (Q9UHD2 whole entry): as the sequence (Q9UHD2 whole entry) above
The target is the same in series [5]. The experiment in a line: Molecular glue activity at RNF126/TBK1 in HEK293T cells assessed as induction of TBK1 degradation at 1 uM measured after 24 hrs by Western blot analysis. In kind it is cell-based.
Target sequence in this assay (Q9BV68 2-311 partner limits assumed): as the sequence (Q9BV68 2-311 partner limits assumed) above
Target sequence in this assay (Q9UHD2 whole entry): as the sequence (Q9UHD2 whole entry) above
Series [6] shares this target. The experiment in a line: Molecular glue activity at RNF126/TBK1 in human A549 cells assessed as induction of TBK1 degradation at 1 uM measured after 6 hrs by Western blot analysis. Type of series: cell-based.
Target sequence in this assay (Q9BV68 2-311 partner limits assumed): as the sequence (Q9BV68 2-311 partner limits assumed) above
Target sequence in this assay (Q9UHD2 whole entry): as the sequence (Q9UHD2 whole entry) above
Series [7] shares this target. The experiment in a line: Molecular glue activity at RNF126/TBK1 in HEK293T cells assessed as induction of TBK1 degradation at 1 uM pretreated with MLN4924 for 2 hrs followed by compound addition and measured after 16 hrs by Western blot analysis. In kind it is cell-based.
Target sequence in this assay (Q9BV68 2-311 partner limits assumed): as the sequence (Q9BV68 2-311 partner limits assumed) above
Target sequence in this assay (Q9UHD2 whole entry): as the sequence (Q9UHD2 whole entry) above
For series [8] the target is unchanged. The experiment in a line: Molecular glue activity at RNF126/TBK1 in HEK293T cells assessed as induction of TBK1 degradation incubated for 16 hrs by Western blot analysis. Type of series: cell-based.
Series [9] is described as follows: AUC (0 to infinity) in rat at 2 mg/kg, iv measured after 24 hrs by LC-MS/MS analysis. As to conditions: in vivo. In kind it is ADME, organism-based.
Series [10] is described as follows: Oral bioavailability in rat at 10 mg/kg measured after 24 hrs by LC-MS/MS analysis. In kind it is ADME, organism-based. As to conditions: in vivo.
Series [11] relates to Mus musculus. The experiment in a line: Anti-inflammatory activity in PKD1 knockout ADPKD (Pkd1 flox/flox; Ksp-Cre) C57BL/6 mouse model assessed as decrease in IL-1beta level in kidney at 5 mg/kg, SC administered from postnatal day 6 and measured on postnatal day 12 by RT-qPCR analysis. In kind it is functional, organism-based. As to conditions: time 7.0 day.
Series [12] has as its target T1, E3 ubiquitin-protein ligase RNF126/Serine/threonine-protein kinase TBK1. The experiment in a line: Molecular glue activity at RNF126/TBK1 in human A549 cells assessed as induction of TBK1 degradation at 1 uM incubated for 16 hrs by Western blot analysis. Type of series: cell-based.
Target sequence in this assay (Q9BV68 2-311 partner limits assumed): as the sequence (Q9BV68 2-311 partner limits assumed) above
Target sequence in this assay (Q9UHD2 whole entry): as the sequence (Q9UHD2 whole entry) above
Series [13] is described as follows: Half-life in rat at 2 mg/kg, iv measured after 24 hrs by LC-MS/MS analysis. Type of series: ADME, organism-based. As to conditions: in vivo.
For series [14], the system named is Mus musculus. The experiment in a line: Anti-inflammatory activity in PKD1 knockout ADPKD (Pkd1 flox/flox; Ksp-Cre) C57BL/6 mouse model assessed as decrease in Ccl2 level in kidney at 5 mg/kg, SC administered from postnatal day 6 and measured on postnatal day 12 by RT-qPCR analysis. As to conditions: time 7.0 day. In kind it is functional, organism-based.
The target of series [15] is T1, E3 ubiquitin-protein ligase RNF126/Serine/threonine-protein kinase TBK1. The experiment in a line: Molecular glue activity at RNF126/TBK1 in HEK293T cells assessed as induction of TBK1 degradation at 1 uM pretreated with MG132 for 2 hrs followed by compound addition and measured after 16 hrs by Western blot analysis. Type of series: cell-based.

Each structure is given as a SMILES string. Calls of active or inactive are those of the source. The calls are words filed in the database; no cut-off is given here.

By DC50 is commonly meant the concentration giving 50% degradation. In general, AUC(0-inf) refers to total exposure, with the tail of the curve extrapolated. Read a low AUC(0-inf) as low exposure. For orientation: bioavailability means dose-corrected exposure relative to a reference, in per cent. The low end stands for little systemic uptake, the high end for much systemic uptake. For orientation: half-life means the time in which the quantity being followed falls by half. In the case of `COc1ccc(C(=O)/C=C/C(=O)N2CCN(CC3CCN(Cc4cccc(Nc5ncc6ccn(CCCNC(=O)C7CCC7)c6n5)c4)CC3)CC2)cc1`, in series [1], the Vd is 17.3 L/kg. Further, the Activity entry was “Active; Significant Reduction In Tbk1 Level Observed” in series [2]; “Active; Maximal Tbk1 Degradation Observed” in [4]; “Active; Maximal Tbk1 Degradation Observed” in [5]; “Active; Significant Reduction In Tbk1 Level Observed” in series [6]; “Active; Degradation In Independent Of Crl-Related Pathway” in series [7]; “Dose-dependent-effect” in series [8]. Further, the outcome in series [3], in series [11], in series [12] and in series [14] was Active. Besides, in series [8], the DC50 turned out to be 351 nM. Moreover, the AUC(0-inf) in series [9] is 1.03 µM·h. The molecule also had a bioavailability in series [10] of 2.77%. The molecule further gave a half-life in [13] of 268 min. For the same molecule, the outcome in series [15] was inactive.
